Like-named read-outs stand apart in the source and are kept apart here.
Experiments:
Assay type in all cases: cell-based
[1] = target: T1, ER (Homo sapiens, UniProt P03372); experiment: ER antagonism (T47D ERE luciferase), T47d-kb-Luc cells; details: read-out: IC50 (ER antagonistm)
T1 construct: endogenous in cells; host or cells: T47d-kb-Luc (T47D stably transfected with a luciferase reporter gene only)
T1 sequence (P03372 1-595): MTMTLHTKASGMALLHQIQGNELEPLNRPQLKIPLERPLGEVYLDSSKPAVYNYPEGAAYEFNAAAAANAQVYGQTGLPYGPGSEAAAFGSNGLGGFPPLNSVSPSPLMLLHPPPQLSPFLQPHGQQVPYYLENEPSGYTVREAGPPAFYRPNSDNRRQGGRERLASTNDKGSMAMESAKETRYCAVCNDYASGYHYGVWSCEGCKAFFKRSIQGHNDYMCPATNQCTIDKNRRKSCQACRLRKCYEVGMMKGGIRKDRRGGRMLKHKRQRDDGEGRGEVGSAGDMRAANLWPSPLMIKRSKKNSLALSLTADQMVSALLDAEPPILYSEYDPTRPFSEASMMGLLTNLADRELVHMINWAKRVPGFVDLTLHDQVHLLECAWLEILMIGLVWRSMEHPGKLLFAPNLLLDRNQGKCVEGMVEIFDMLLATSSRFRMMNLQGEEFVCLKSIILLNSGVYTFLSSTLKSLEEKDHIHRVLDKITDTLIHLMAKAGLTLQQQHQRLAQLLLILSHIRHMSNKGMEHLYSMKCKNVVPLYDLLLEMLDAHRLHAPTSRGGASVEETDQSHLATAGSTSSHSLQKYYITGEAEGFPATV
Description: The Antiestrogenic Activity of the Exemplary Compounds was Assessed in T47d-kb-Luc Stably Transfected Human Breast Cancer Cell
Antagonist activities were measured by the compound's ability to inhibit the activity of estradiol, the natural estrogen. Data were then normalized relative to the activity of the estradiol control and determinations were performed for five concentrations of the samples in quadruplicate in at least three separate experiments.

[2] = test system: MCF-7 breast cancer cells; experiment: MCF-7 proliferation / cell viability assay; details: MCF-7 proliferation with 0.1 nM 17-beta estradiol, read-out: IC50 (anti-proliferation)
Description: The Anti-Proliferative Activities of the Exemplary Compounds were Assessed by a Cell Viability Assay in MCF-7 Breast Cancer Cells
MCF-7 cells were plated in six-well plates at a density of 50,000 each well in 5% FBS DMEM medium. The cells were then treated with exemplary compounds or fulvestrant separately at 6 different doses ranging from 10^−10 M to 10^−5 M for 5 days, while equal volumes of DMSO were used as vehicle controls. Viable cell numbers were counted with a Z Series Coulter Counter instrument (Beckman-Coulter) following manufacturer's instructions. The ratio of drug treated viable cell numbers to vehicle treated viable cell numbers was defined as survival ratio where the control has the survival ratio of 100%.

[3] = target: T2, ERα (Homo sapiens, UniProt P03372); experiment: ER degradation in MCF-7 cells (Western blot); details: for DC50: ER degradation, 24 hours; for Dmax: MCF7, Maximal ER degradation, read-out: Dmax
T2 construct: endogenous in cells; host or cells: MCF-7
T2 sequence (P03372 1-595): T1 sequence (P03372 1-595)
Description: Degradation of ER in MCF-7 Breast Cancer Cells by Exemplary Compounds of the Present Disclosure
MCF-7 cells were plated in 24-well plates at a density of 10^5 cells/well. Media containing various drug concentrations were added on the day following plating (day 0) and allowed to incubate for 24 hours for Western blot. Media with the tested compound was changed every other day. Cells were lysed, snapped frozen in liquid nitrogen, and stored at −80° C. until assay for ERα. Media were removed and dishes were washed with 1× DPBS. Lysates were made by adding 150 μL of complete lysis solution and scraping cells into a 1.5 mL microcentrifuge tube. Lysates were placed on a rotisserie at 4° C. for 30 min and then spun at 4° C. at 12000 rcf for 10 min. Supernatants were assayed for protein content, snap-frozen, and stored a −80° C. if not run immediately. Then 50 μg of protein was subjected to Western blot protocol. Membranes were blocked and then incubated with 1:200 dilution of ERα antibody at 4° C. overnight followed by 1:10000 dilution of secondary antibody for 1 h at room temperature. They were then imaged on a LICOR infrared scanner.
FIGS. 1 to 10 show the ER degradation efficacy of compounds 3, 5, 9, 11, 12, 16, 18, 19, 20, 21, 23, 24, 25, 26, 27, 28, 29, 30, 31, 32, 33, 34, 37, 38, and 40 in MCF-7 cells at various concentrations. Degradation of ER was expressed as an DC50 value and was determined for exemplary compounds in Table 1 by calculation of the concentration of compound that was required to give a 50% reduction of ER expression level. Maximal degradation of ER was expressed as a Dmax value by measuring the highest percentage of ER reduction achieved by exemplary compound in the treatment concentration range.

Row | Compound | IC50 [1] [µM] | IC50 [2] [µM] | DC50 [3] [µM] | IC50 ([2]; Homo sapiens, MCF7) [µM] | Dmax [3] [%]
1 | CCC(=C(c1ccc(OCCN2CCN(CC3CCN(c4ccc5c(c4)C(=O)N(C4CCC(=O)NC4=O)C5=O)CC3)CC2)cc1)c1ccc(B(O)O)cc1)c1ccccc1 (stereo in doubt) [Compound 18, (E)-(4-(1-(4-(2-(4-((1-(2-(2,6-dioxopiperidin-3-yl)-1,3-dioxoisoindolin-5-yl)piperidin-4-yl)methyl)piperazin-1-yl)ethoxy)phenyl)-2-phenylbut-1-en-1-yl)phenyl)boronic acid] | 0.01 to 0.05 | 0.01 to 0.05 | < 0.01 |  | 
2 | CC/C(=C(\c1ccc(B(O)O)cc1)c1ccc(N2CCC(CN3CCN(c4ccc5c(c4)CN(C4CCC(=O)NC4=O)C5=O)CC3)CC2)cc1)c1ccccc1 (stereo not shown) [Compound 1] | 0.01 to 0.05 |  | < 0.01 | 0.01 to 0.05 | > 90
3 | CC/C(=C(/c1ccc(B(O)O)cc1)c1ccc(N2CCC(CN3CCN(c4ccc5c(c4)CN(C4CCC(=O)NC4=O)C5=O)CC3)CC2)cc1)c1ccccc1 (stereo not shown) [Compound 2, (E)-(4-(1-(4-(4-((4-(2-(2,6-dioxopiperidin-3-yl)-1-oxoisoindolin-5-yl)piperazin-1-yl)methyl)piperidin-1-yl)phenyl)-2-phenylbut-1-en-1-yl)phenyl)boronic acid] | 0.01 to 0.05 |  | < 0.01 | 0.01 to 0.05 | > 90
4 | CC/C(=C(\c1ccc(B(O)O)cc1)c1ccc(N2CCC(CN3CCN(c4ccc5c(c4)C(=O)N(C4CCC(=O)NC4=O)C5)CC3)CC2)cc1)c1ccccc1 (stereo not shown) [Compound 3, (Z)-(4-(1-(4-(4-((4-(2-(2,6-dioxopiperidin-3-yl)-3-oxoisoindolin-5-yl)piperazin-1-yl)methyl)piperidin-1-yl)phenyl)-2-phenylbut-1-en-1-yl)phenyl)boronic acid] | < 0.01 |  | > 0.05 | < 0.01 | > 75
5 | CC/C(=C(/c1ccc(B(O)O)cc1)c1ccc(N2CCC(CN3CCN(c4ccc5c(c4)C(=O)N(C4CCC(=O)NC4=O)C5)CC3)CC2)cc1)c1ccccc1 (stereo not shown) [Compound 4, (E)-(4-(1-(4-(4-((4-(2-(2,6-dioxopiperidin-3-yl)-3-oxoisoindolin-5-yl)piperazin-1-yl)methyl)piperidin-1-yl)phenyl)-2-phenylbut-1-en-1-yl)phenyl)boronic acid] | < 0.01 |  | > 0.05 | < 0.01 | > 75
6 | CC/C(=C(\c1ccc(B(O)O)cc1)c1ccc(N2CCC(CN3CCN(c4ccc5c(c4)C(=O)N(C4CCC(=O)NC4=O)C5=O)CC3)CC2)cc1)c1ccccc1 (stereo not shown) [Compound 5, (Z)-(4-(1-(4-(4-((4-(2-(2,6-dioxopiperidin-3-yl)-1,3-dioxoisoindolin-5-yl)piperazin-1-yl)methyl)piperidin-1-yl)phenyl)-2-phenylbut-1-en-1-yl)phenyl)boronic acid] | 0.01 to 0.05 |  | 0.01 to 0.05 | > 0.05 | > 90
7 | CC/C(=C(/c1ccc(B(O)O)cc1)c1ccc(N2CCC(CN3CCN(c4ccc5c(c4)C(=O)N(C4CCC(=O)NC4=O)C5=O)CC3)CC2)cc1)c1ccccc1 (stereo not shown) [Compound 6, (E)-(4-(1-(4-(4-((4-(2-(2,6-dioxopiperidin-3-yl)-1,3-dioxoisoindolin-5-yl)piperazin-1-yl)methyl)piperidin-1-yl)phenyl)-2-phenylbut-1-en-1-yl)phenyl)boronic acid] | 0.01 to 0.05 |  | 0.01 to 0.05 | > 0.05 | > 90
8 | CC/C(=C(\c1ccc(B(O)O)cc1)c1ccc(N2CCC(CCN3CCN(c4ccc5c(c4)CN(C4CCC(=O)NC4=O)C5=O)CC3)CC2)cc1)c1ccccc1 (stereo not shown) [Compound 7, (Z)-(4-(1-(4-(4-(2-(4-(2-(2,6-dioxopiperidin-3-yl)-1-oxoisoindolin-5-yl)piperazin-1-yl)ethyl)piperidin-1-yl)phenyl)-2-phenylbut-1-en-1-yl)phenyl)boronic acid] | < 0.01 |  | 0.01 to 0.05 | 0.01 to 0.05 | > 90
9 | CC/C(=C(/c1ccc(B(O)O)cc1)c1ccc(N2CCC(CCN3CCN(c4ccc5c(c4)CN(C4CCC(=O)NC4=O)C5=O)CC3)CC2)cc1)c1ccccc1 (stereo not shown) [Compound 8, (E)-(4-(1-(4-(4-(2-(4-(2-(2,6-dioxopiperidin-3-yl)-1-oxoisoindolin-5-yl)piperazin-1-yl)ethyl)piperidin-1-yl)phenyl)-2-phenylbut-1-en-1-yl)phenyl)boronic acid] | < 0.01 |  | 0.01 to 0.05 | 0.01 to 0.05 | > 90
10 | CC/C(=C(\c1ccc(B2OC(C)(C)C(C)(C)O2)cc1)c1ccc(N2CCC(CCN3CCN(c4ccc5c(c4)CN(C4CCC(=O)NC4=O)C5=O)CC3)CC2)cc1)c1ccccc1 (stereo not shown) [Compound 9, (Z)-3-(1-oxo-5-(4-(2-(1-(4-(2-phenyl-1-(4-(4,4,5,5-tetramethyl-1,3,2-dioxaborolan-2-yl)phenyl)but-1-en-1-yl)phenyl)piperidin-4-yl)ethyl)piperazin-1-yl)isoindolin-2-yl)piperidine-2,6-dione] | < 0.01 |  | 0.01 to 0.05 | < 0.01 | > 90
11 | CC/C(=C(/c1ccc(B2OC(C)(C)C(C)(C)O2)cc1)c1ccc(N2CCC(CCN3CCN(c4ccc5c(c4)CN(C4CCC(=O)NC4=O)C5=O)CC3)CC2)cc1)c1ccccc1 (stereo not shown) [Compound 10, (E)-3-(1-oxo-5-(4-(2-(1-(4-(2-phenyl-1-(4-(4,4,5,5-tetramethyl-1,3,2-dioxaborolan-2-yl)phenyl)but-1-en-1-yl)phenyl)piperidin-4-yl)ethyl)piperazin-1-yl)isoindolin-2-yl)piperidine-2,6-dione] | < 0.01 |  | 0.01 to 0.05 | < 0.01 | > 90
12 | CC/C(=C(\c1ccc(B(O)O)cc1)c1ccc(N2CCC(CNC3CCN(c4ccc5c(c4)CN(C4CCC(=O)NC4=O)C5=O)CC3)CC2)cc1)c1ccccc1 (stereo not shown) [Compound 11] | < 0.01 |  | < 0.01 | < 0.01 | > 90
13 | CC/C(=C(/c1ccc(B(O)O)cc1)c1ccc(N2CCC(CNC3CCN(c4ccc5c(c4)CN(C4CCC(=O)NC4=O)C5=O)CC3)CC2)cc1)c1ccccc1 (stereo not shown) [Compound 12] | < 0.01 |  | < 0.01 | < 0.01 | > 90
14 | CC/C(=C(\c1ccc(B(O)O)cc1)c1ccc(N2CCC(CNC3CCN(c4ccc5c(c4)C(=O)N(C4CCC(=O)NC4=O)C5)CC3)CC2)cc1)c1ccccc1 (stereo not shown) [Compound 13, (Z)-(4-(1-(4-(4-(((1-(2-(2,6-dioxopiperidin-3-yl)-3-oxoisoindolin-5-yl)piperidin-4-yl)amino)methyl)piperidin-1-yl)phenyl)-2-phenylbut-1-en-1-yl)phenyl)boronic acid] | < 0.01 |  | < 0.01 | < 0.01 | > 90

Source: patent US20220348595A1, “COMPOUNDS AND METHODS FOR THE TARGETED DEGRADATION OF ESTROGEN RECEPTORS” (Endotarget Inc., priority 2021, published 2022)
